Where no end group is shown, it is not given here.
Columns and labels:
Type in all cases: cell-based
[1] = tested on: E. coli (NIH-JC2); conditions: for Antimicrobial activities (MIC in μM) E. coli: NIH-JC2, 24 h
Procedure: (§1) The two bacterial strains (S. aureus, E. coli) were subcultured from storage media to agar plate media (“Mueller Hinton Agar” available from DIFCO), then inoculated into liquid media (“Mueller Hinton broth II” available from DIFCO) and cultured at 30° C. or 37° C. for 24 hours. Subsequently, the aforementioned medium was added to the culture media to dilute and prepare inocula at bacterial concentrations of 2×10^5 cells/mL.
(§2) Antimicrobial activity tests were conducted as follows.
(§3) The peptide-containing solutions prepared to the respective concentrations were aliquoted into 96-well microplates at 20 μL per well. In test sections against the fungus, 80 μL of the MOPS-buffered RPMI1640 medium was added to each well. In test sections against the bacteria, 80 μL of the liquid medium (Mueller Hinton broth II) was added to each well.
(§4) Subsequently, 100 μL of one of the inocula was added to each well and incubation was started in an incubator at 30° C. or 37° C. After 24 hours, the multiplication (growth) of the microorganisms was analyzed by measurements of turbidity (OD600).

[2] = tested on: S. aureus (209P); conditions: for Antimicrobial activities (MIC in μM) S. aureus: 209P, 24 h
Procedure: as §1, §2, §3, §4

[3] = tested on: C. albicans (NBRC-1594); conditions: for Antimicrobial activities (MIC in μM) C. albicans: NBRC-1594, 24 h
Procedure: On the other hand, with respect to the one fungus strain (C. albicans), the surface of a slant culture was washed with a physiological saline containing 0.1% Tween® 80 to prepare a conidial suspension. The suspension was filtered with a Falcon® cell strainer and diluted with a MOPS-buffered RPMI1640 medium to prepare an inoculum at a fungus concentration of 2×10^4 cells/mL.
as §2, §3, §4

[4] = summary of Table 2, all microorganism strains

Sequence	Antimicrobial activities (MIC in μM) E. coli [1] [µM]	Antimicrobial activities (MIC in μM) S. aureus [2] [µM]	Antimicrobial activities (MIC in μM) C. albicans [3] [µM]	Antimicrobial activity in words, E. coli [1, 4]	Antimicrobial activity in words, S. aureus [2, 4]	Antimicrobial activity in words, C. albicans [3, 4]
MGPTSPAARGQGRRWRPPLPLLLPLSLLLLRAQLAVG [Sample 4]	16	4	16	–	–	–
MAATGTAAAAATGRLLLLLLVGLTAPALA [Sample 5]	16	8	16	–	–	–
MAATGTAAAAATGKLLVLLLLGLTAPAAA [Sample 6]	16	8	16	–	–	–
MLPSLALLLLAAWTVRA [Sample 2]	32	16	32	–	–	–
TLHQQCIRVLKNNID [Sample 7, reference compound]	>256	>256	>256	no antimicrobial activities were observed	no antimicrobial activities were observed	no antimicrobial activities were observed
MGPASPAARGLSRRPGQPPLPLLLPLLLLLLRAQPAIG [Sample 3]	16	4	16	–	–	–
MLPGLALLLLAAWTARA [Sample 1]	32	16	32	–	–	–

Reference: patent publication US9370182B2, “Antimicrobial peptide and use thereof” (TOAGOSEI CO., LTD., priority 2012, dated 2016)
